The target of series [1] is T1, Peptidyl-prolyl cis-trans isomerase A (Homo sapiens, UniProt P62937). In words: Inhibition of fluorescent cyclosporin A binding to human CypA by TR-FRET assay. In general terms: Time-resolved FRET reads energy transfer from a long-lived donor to a nearby acceptor.
Series [2] concerns the target T1, Peptidyl-prolyl cis-trans isomerase A. Briefly: Binding affinity to CypA (unknown origin) by fluorescence titration method.
The nature of series [3]: Distribution coefficient, logD of the compound. In kind it is physicochemical. The conditions noted are these: octanol/water.
A short description of series [4]: Apparent permeability across basolateral to apical side in human Caco2 cells. The conditions noted are these: Caco-2. In kind it is ADME, cell-based. In general terms: Caco-2 cells form a polarised layer with tight junctions and transporters.
Series [5] in a line: Aqueous solubility of the compound. In kind it is physicochemical. The conditions noted are these: buffer.
The nature of series [6]: Intrinsic clearance in human liver microsomes. The conditions noted are these: read-out: CLH. In kind it is ADME. (Microsomes from liver hold many membrane-bound enzymes, among them those of drug oxidation.)
The nature of series [7]: Unbound fraction in human plasma. The format is ADME, cell-free.
Series [8] in a line: Apparent permeability across apical to basolateral side in human Caco2 cells. In kind it is ADME, cell-based. The conditions noted are these: Caco-2.

pKd: −log10 of the molar value. Numbered stars: 1 amine (or outer) side, 2 acyl side, 3 side chain; on linkers, the order of the positions; unused ones are H or OH. Peptide text beside a SMILES is read from it. * marks the point of attachment. pNA = O=[N+]([O-])c1ccc(N*)cc1; Suc = O=C(CCC(=O)[*:2])[*:1] A value given as a limit tells only on which side of the number the result lay.

In general, pKd refers to the negative decadic logarithm of the Kd, by convention in mol/L. A high value points to a small Kd. As usually defined, the logD is lipophilicity at a set pH, counting ionised and neutral species. A word on the Papp B→A: it is how fast a substance crosses the layer from the basolateral side. As usually defined, the solubility is how much of the substance goes into solution per volume. Broadly, the fraction unbound is the share of the substance not bound to proteins or other matrix. The term Papp A→B denotes how fast a substance crosses the layer from the apical side.

T1 sequence (P62937 whole entry): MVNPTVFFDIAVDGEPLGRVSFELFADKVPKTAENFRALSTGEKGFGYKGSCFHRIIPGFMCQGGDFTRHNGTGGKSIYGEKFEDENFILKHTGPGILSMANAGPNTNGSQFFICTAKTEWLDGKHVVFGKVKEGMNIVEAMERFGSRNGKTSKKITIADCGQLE

With `C[C@@]1(NCC2CCCCCCC2)COCCCCOC[C@@H](C(=O)O)NC(=O)[C@@H]2CCCN2C(=O)CNC1=O`, the pKd in series [1] is 5.27. Same read-out and setting: the value for `C[C@@]1(NC(=O)C2CCC2)COCCCCOC[C@@H](C(=O)O)NC(=O)[C@@H]2CCCN2C(=O)CNC1=O` was 3.86.

Regarding `C[C@H](NC(=O)CCC(=O)O)C(=O)NCC(=O)N1CCC[C@H]1C(=O)N[C@@H](Cc1ccccc1)C(=O)Nc1ccc([N+](=O)[O-])cc1` (Suc-AGPF-pNA), the pKd in series [2] is 3.87.

For `C[C@@]1(NC(=O)c2cc(Cl)cc(Cl)c2)COCCCCOC[C@@H](C(=O)O)NC(=O)[C@@H]2CCCN2C(=O)CNC1=O`, the pKd in series [1] is under 3.22.

In turn, `C[C@@]1(NCCCc2ccccc2)COCCCCOC[C@@H](C(=O)O)NC(=O)[C@@H]2CCCN2C(=O)CNC1=O` showed a pKd in series [1] of under 3.22. On to `C[C@@]1(NCC2CCCCC2)COCCCCOC[C@@H](C(=O)O)NC(=O)[C@@H]2CCCN2C(=O)CNC1=O`, for which the pKd in series [1] is 4.49. On to `C[C@@]1(NCC2CCOCC2)COCCCCOC[C@@H](C(=O)O)NC(=O)[C@@H]2CCCN2C(=O)CNC1=O`, for which the pKd in series [1] is under 3.22. Regarding `CC(=O)N[C@]1(C)COCCCCOC[C@@H](C(=O)O)NC(=O)[C@@H]2CCCN2C(=O)CNC1=O`, the pKd in series [1] is under 3.22. Regarding `C[C@@]1(NCC2CCCC2)COCCCCOC[C@@H](C(=O)O)NC(=O)[C@@H]2CCCN2C(=O)CNC1=O`, the pKd in series [1] was under 3.22. In series [1], `C[C@@]1(N)COCCCCOC[C@@H](C(=O)O)NC(=O)[C@@H]2CCCN2C(=O)CNC1=O` gave a pKd of 3.90. On the same count and under the same terms, the value for `C[C@@]1(NCc2ccccc2)COCCCCOC[C@@H](C(=O)O)NC(=O)[C@@H]2CCCN2C(=O)CNC1=O` was under 3.22; that for `CCCCCCC(=O)N[C@]1(C)COCCCCOC[C@@H](C(=O)O)NC(=O)[C@@H]2CCCN2C(=O)CNC1=O` was under 3.22.

`C[C@@]1(NCCc2ccccc2)COCCCCOC[C@@H](C(=O)O)NC(=O)[C@@H]2CCCN2C(=O)CNC1=O.Cl` had a logD in series [3] of -1.8. Further, the Papp B→A in series [4] turned out to be 0.17 ×10⁻⁶ cm/s. In series [1], this compound had a pKd of 4.98. In addition, in series [5], the solubility is over 1000 µM. For the same compound, the microsomal CLint in series [6] is under 3 µL/min/mg. The compound further gave a fraction unbound in series [7] of 1. The Papp A→B in series [8] turned out to be 0.1 ×10⁻⁶ cm/s.

For the origin of these results see ChEMBL document CHEMBL3862006, “Design and synthesis of peptide-based macrocyclic cyclophilin inhibitors” (Bioorg Med Chem Lett, 2016).
